Assay results taken from patent publication US20250134875A1, “FORMULATIONS OF ALK-5 KINASE INHIBITORS AND USES THEREOF” (Thirona Bio, Inc., priority 2023, published 2025).
In brackets after ≈: the same amount, converted by molar mass.

Columns and labels:
[1] = Stability studies (storage and forced degradation); assay type: physicochemical
Description: The physical solubility of the formulation is an important factor in the development of the formulation.
The active ingredient, Compound 1, is very stable, and has known stability of greater than 5 years.
The stability studies were also conducted by storing the samples under the conditions of accelerated degradation (40° C./75% RH). The stress conditions and the resulting stability of the formulation is provided below.

[2] = Solubility of Compound 1 in solvents; assay type: physicochemical
Source text: Tables 2 and 3 provide the solubility of the exemplary ALK-5 kinase inhibitor Compound 1 in various solvents.

[3] = test system: surgical incision-induced dermal fibrosis; assay: Surgical incision-induced dermal fibrosis model: clinical signs, visual assessment, histology; assay type: in vivo, Göttingen minipig
Description: . Therefore, a model of surgical incision-induced dermal fibrosis was established in minipigs and the effects of topical Compound 1 were evaluated by visual assessment, histologic examination and gene expression by RNA sequencing.
The study was conducted in 4 female Göttingen SPF minipigs. On Day 1, eight full thickness incisional wounds, four on each side, were performed on each animal. […]. All animals received a dose volume of 160 μl per wound ([…] applied to a 32 cm2 area surrounding each incision). Clinical signs, visual observations of incisions, body weight and food consumption were recorded during the in-life period. At necropsy (Day 21) two biopsies were collected from each incision for histopathology and gene expression analysis.
For histopathology, a 0.8 cm punch biopsy was collected from the incisional wounds. The biopsies were divided into two, diagonal to the incisional wound. All biopsies were individually fixed in phosphate buffered neutral 4% formaldehyde. Following fixation, all incisional wound biopsies collected for microscopic examination were trimmed and processed. The specimens were embedded in paraffin and cut at a nominal thickness of approximately […], stained with haematoxylin and eosin, and examined by light microscopy.

[4] = Excipient compatibility / stability study (HPLC, 2 weeks); assay type: physicochemical; settings: for Loss of Compound 1 on storage / Stability conclusion: 2 weeks; for Stability conclusion: RT, 40 and 50° C.
Description: Stability studies were conducted to evaluate compatibility and stability of Compound 1 with some of the excipients included in the solubility experiments. The stability was assessed using the validated API HPLC method after storage at room temperature (RT), 40° C. and 50° C. for 2 weeks. The summary of the data generated from these experiments is provided below in Table 6 below.

[5] = Solubility assessment in solvent and excipient systems (formulated systems); assay type: physicochemical; settings: 25° C.
Source text: Table 5 provides the solubility of Compound 1 in various solvents and excipient systems to analyze the topical systems to be utilized with the formulations.

## Cc1cccc(-n2ncc(C)c2-c2cc3cnccc3s2)n1 [Compound 1]
[1]
  Known stability of the active ingredient: greater than 5 years
[2]; Cycolmethicone NF, oil or lipid
  solubility: 190 µg/mL (≈ 0.62 mM)
[2]; DMSO, organic solvent or mixture
  solubility: 83700 µg/mL (≈ 273 mM)
[2]; Dimethicone 100 CST, oil or lipid
  solubility: 110 µg/mL (≈ 0.359 mM)
[2]; PEG 400, organic solvent or mixture
  solubility: 43900 µg/mL (≈ 143 mM)
[2]; PPG-15 stearyl ether, oil or lipid
  solubility: 4870 µg/mL (≈ 15.9 mM)
[2]; Transcutol (DEGEE), organic solvent or mixture
  solubility: 115000 µg/mL (≈ 376 mM)
[2]; acetone, organic solvent or mixture
  solubility: 38300 µg/mL (≈ 125 mM)
[2]; benzyl alcohol, organic solvent or mixture
  solubility: > 300000 µg/mL
[2]; diethyl sebacate, oil or lipid
  solubility: 13100 µg/mL (≈ 42.6 mM)
[2]; diisopropyl adipate, oil or lipid
  solubility: 50500 µg/mL (≈ 165 mM)
[2]; ethanol, organic solvent or mixture
  solubility: 30800 µg/mL (≈ 101 mM)
[2]; hexylene glycol, organic solvent or mixture
  solubility: 50200 µg/mL (≈ 164 mM)
[2]; isopropyl myristate, oil or lipid
  solubility: 3450 µg/mL (≈ 11.3 mM)
[2]; medium chain triglycerides, oil or lipid
  solubility: 5310 µg/mL (≈ 17.3 mM)
[2]; mineral oil, oil or lipid
  solubility: 540 µg/mL (≈ 1.76 mM)
[2]; octyldodecanol, oil or lipid
  solubility: 5370 µg/mL (≈ 17.5 mM)
[2]; organic solvent or mixture, Propylene Glycol (PG)
  solubility: 23700 µg/mL (≈ 77.4 mM)
[2]; phenethyl alcohol, organic solvent or mixture
  solubility: > 300000 µg/mL
[2]; phosphate buffer, pH 6.5, aqueous buffer
  solubility: 20 µg/mL (≈ 0.0653 mM)
[2]; propylene carbonate, organic solvent or mixture
  solubility: 24100 µg/mL (≈ 78.7 mM)
[2]; sodium citrate buffer, pH 3, aqueous buffer, Sod.Citrate buffer (pH3)
  solubility: 2190 µg/mL (≈ 7.15 mM)
[2]; sodium citrate buffer, pH 4, aqueous buffer, Sod.Citrate buffer (pH4)
  solubility: 290 µg/mL (≈ 0.946 mM)
[2]; sodium citrate buffer, pH 5, aqueous buffer, Sod.Citrate buffer (pH5)
  solubility: 70 µg/mL (≈ 0.228 mM)
[2]; water
  solubility: 20 µg/mL (≈ 0.0653 mM)
[3]; Day 21
  Wound healing (histology: new collagen, re-epithelialisation): wound healing was not compromised
[3]; in-life period, topical 0.1%, 0.3% or 1% twice daily for 14 days
  Adverse clinical signs: No adverse clinical signs
[3]; topical administration
  Fibrosis (gene expression and histology data): inhibits fibrosis
[4]; Benzyl Alcohol +0.1% BHT, 40° C.
  Loss of Compound 1 on storage: No Loss
[4]; Benzyl Alcohol +0.1% BHT, 50° C.
  Loss of Compound 1 on storage: No Loss
[4]; Benzyl Alcohol +0.1% BHT, RT storage
  Loss of Compound 1 on storage: No Loss
[4]; Benzyl Alcohol +0.1% BHT
  Stability conclusion: STABLE AT ALL
[4]; Benzyl Alcohol, 40° C.
  Loss of Compound 1 on storage: No Loss
[4]; Benzyl Alcohol, 50° C.
  Loss of Compound 1 on storage: No Loss
[4]; Benzyl Alcohol, RT storage
  Loss of Compound 1 on storage: No Loss
[4]; Benzyl Alcohol
  Stability conclusion: STABLE AT ALL
[4]; Diethyl Sebacate, 40° C.
  Loss of Compound 1 on storage: 3-4% loss
[4]; Diethyl Sebacate, 50° C.
  Loss of Compound 1 on storage: 6% loss
[4]; Diethyl Sebacate, RT storage
  Loss of Compound 1 on storage: No Loss
[4]; Diethyl Sebacate
  Stability conclusion: Some Instability
[4]; PEG 400 + 0.1% BHT, 40° C.
  Loss of Compound 1 on storage: No Loss
[4]; PEG 400 + 0.1% BHT, 50° C.
  Loss of Compound 1 on storage: No Loss
[4]; PEG 400 + 0.1% BHT, RT storage
  Loss of Compound 1 on storage: No Loss
[4]; PEG 400, 40° C.
  Loss of Compound 1 on storage: 10% loss
[4]; PEG 400, 50° C.
  Loss of Compound 1 on storage: ~28% loss
[4]; PEG 400, RT storage
  Loss of Compound 1 on storage: No Loss
[4]; PEG 400
  Stability conclusion: Unstable at > RT
[4]; Phenoxyethanol +0.1% BHT, 40° C.
  Loss of Compound 1 on storage: No Loss
[4]; Phenoxyethanol +0.1% BHT, 50° C.
  Loss of Compound 1 on storage: No Loss
[4]; Phenoxyethanol +0.1% BHT, RT storage
  Loss of Compound 1 on storage: No Loss
[4]; Phenoxyethanol +0.1% BHT
  Stability conclusion: STABLE AT ALL
[4]; Phenoxyethanol, 40° C.
  Loss of Compound 1 on storage: No Loss
[4]; Phenoxyethanol, 50° C.
  Loss of Compound 1 on storage: No Loss
[4]; Phenoxyethanol, RT storage
  Loss of Compound 1 on storage: No Loss
[4]; Phenoxyethanol
  Stability conclusion: STABLE AT ALL
[4]; Propylene Glycol, 40° C.
  Loss of Compound 1 on storage: No Loss
[4]; Propylene Glycol, 50° C.
  Loss of Compound 1 on storage: No Loss
[4]; Propylene Glycol, RT storage
  Loss of Compound 1 on storage: No Loss
[4]; Propylene Glycol
  Stability conclusion: STABLE AT ALL
[4]; Transcutol (DEGEE) +0.1% BHT, 40° C.
  Loss of Compound 1 on storage: No Loss
[4]; Transcutol (DEGEE) +0.1% BHT, 50° C.
  Loss of Compound 1 on storage: No Loss
[4]; Transcutol (DEGEE) +0.1% BHT, RT storage
  Loss of Compound 1 on storage: No Loss
[4]; Transcutol (DEGEE) +0.1% BHT
  Stability conclusion: STABLE AT ALL
[4]; Transcutol (DEGEE), 40° C.
  Loss of Compound 1 on storage: No Loss
[4]; Transcutol (DEGEE), 50° C.
  Loss of Compound 1 on storage: No Loss
[4]; Transcutol (DEGEE), RT storage
  Loss of Compound 1 on storage: No Loss
[4]; Transcutol (DEGEE)
  Stability conclusion: STABLE AT ALL
[4]; pH 3 Citrate buffer, 40° C.
  Loss of Compound 1 on storage: No Loss
[4]; pH 3 Citrate buffer, 50° C.
  Loss of Compound 1 on storage: No Loss
[4]; pH 3 Citrate buffer, RT storage
  Loss of Compound 1 on storage: No Loss
[4]; pH 3 Citrate buffer
  Stability conclusion: STABLE AT ALL
[4]; pH4 Citrate buffer, 40° C.
  Loss of Compound 1 on storage: No Loss
[4]; pH4 Citrate buffer, 50° C.
  Loss of Compound 1 on storage: No Loss
[4]; pH4 Citrate buffer, RT storage
  Loss of Compound 1 on storage: No Loss
[4]; pH4 Citrate buffer
  Stability conclusion: STABLE AT ALL
[4]; pH5 Citrate buffer, 40° C.
  Loss of Compound 1 on storage: No Loss
[4]; pH5 Citrate buffer, 50° C.
  Loss of Compound 1 on storage: No Loss
[4]; pH5 Citrate buffer, RT storage
  Loss of Compound 1 on storage: No Loss
[4]; pH5 Citrate buffer
  Stability conclusion: STABLE AT ALL
[4]; solubility and compatibility experiments
  Stability of Compound 1 with excipients (summary): relatively stable except with PEG400 and Diethyl Sebacate
[5]; Aqueous Gels, aqueous component 10-30% w/w
  Max solubility of Compound 1: 1-2.7%/w
[5]; Creams & Lotions, aqueous component 30-40% w/w
  Max solubility of Compound 1: 1-1.5%/w
[5]; Non-Aqueous Gels & Film forming solutions, aqueous component 0.0% w/w
  Max solubility of Compound 1: 3-3.5%/w
